# Values of other authors in patent US20240065974A1, “ORAL THIN FILM” (LTS Lohmann Therapie-Systeme AG, priority 2021, published 2024).
# Conditions: compared with (R)-ketamine
structure (smiles),measurement,value
"CNC1(c2ccccc2Cl)CCCCC1=O (racemic) [(S)-ketamine, (S)-(±)-2-(2-chlorophenyl)-2-(methylamino)cyclohexan-1-one]",Analgesic and anaesthetic potency relative to the (R) form,approximately three times higher
